Test results reported in PMC5267425, “Identification of small molecule modulators of HIV-1 Tat and Rev protein accumulation” (Retrovirology, 2017).
Several values for one entry are separate records, joined by “and”; a condition that tells them apart may be missing. Identical values can stand only once.

Tested on: cellular gene expression in HeLa rtTA HIV∆Mls cells

In the case of `Cc1cc(NCc2cccnc2)n2ncc(-c3ccc(Cl)cc3)c2n1` [Compound 791, 3-(4-chlorophenyl)-5-methyl-N-(3-pyridinylmethyl)pyrazolo[1,5-a]pyrimidin-7-amine], the LYSMD1 expression level (gene LYSMD1, 9147791-treated cells, two replicates) is reported as 6.83 and 7.15, the MAP3K12 expression level (gene MAP3K12, 9147791-treated cells, two replicates) is reported as 10.58 and 11.11 and the MBD6 expression level (gene MBD6, 9147791-treated cells, two replicates) is reported as 19.55 and 19.21. The MBLAC2 expression level (gene MBLAC2, 9147791-treated cells, two replicates) was 3.53 and 3.60, the MED1 expression level (gene MED1, 9147791-treated cells, two replicates) was 16.72 and 17.76 and the MKKS expression level (gene MKKS, 9147791-treated cells, two replicates) was 33.76 and 31.64. For the same compound, the MLKL expression level (gene MLKL, 9147791-treated cells, two replicates) was 8.65 and 8.80, the MORC2 expression level (gene MORC2, 9147791-treated cells, two replicates) was 14.30 and 13.93 and the MRPL1 expression level (gene MRPL1, 9147791-treated cells, two replicates) was 13.37 and 12.84. The MRPS16 expression level (gene MRPS16, 9147791-treated cells, two replicates) was 56.39 and 57.78, the MRPS18B expression level (gene MRPS18B, 9147791-treated cells, two replicates) was 84.33 and 82.56 and the MSL1 expression level (gene MSL1, 9147791-treated cells, two replicates) was 19.35 and 20.08. For the same compound, the MTIF2 expression level (gene MTIF2, 9147791-treated cells, two replicates) was 23.18 and 24.37, the MXI1 expression level (gene MXI1, 9147791-treated cells, two replicates) was 11.96 and 11.72 and the MYSM1 expression level (gene MYSM1, 9147791-treated cells, two replicates) was 6.50 and 6.96. The NADK expression level (gene NADK, 9147791-treated cells, two replicates) was 51.36 and 49.09, the NFX1 expression level (gene NFX1, 9147791-treated cells, two replicates) was 16.88 and 17.47 and the NHLRC2 expression level (gene NHLRC2, 9147791-treated cells, two replicates) was 5.90 and 6.13. For the same compound, the NR2C1 expression level (gene NR2C1, 9147791-treated cells, two replicates) was 12.80 and 13.28, the NSMAF expression level (gene NSMAF, 9147791-treated cells, two replicates) was 20.81 and 21.54 and the NT5DC3 expression level (gene NT5DC3, 9147791-treated cells, two replicates) was 2.73 and 2.69. The NUFIP2 expression level (gene NUFIP2, 9147791-treated cells, two replicates) was 18.50 and 18.17, the OSMR expression level (gene OSMR, 9147791-treated cells, two replicates) was 33.63 and 36.47 and the OTUD6B expression level (gene OTUD6B, 9147791-treated cells, two replicates) was 9.61 and 9.84. The PATL1 expression level (gene PATL1, 9147791-treated cells, two replicates) was 30.78 and 31.35, the PEX19 expression level (gene PEX19, 9147791-treated cells, two replicates) was 25.90 and 26.36 and the PHF1 expression level (gene PHF1, 9147791-treated cells, two replicates) was 27.67 and 28.09. The PIP4K2C expression level (gene PIP4K2C, 9147791-treated cells, two replicates) was 17.91 and 18.93, the PLD3 expression level (gene PLD3, 9147791-treated cells, two replicates) was 114.37 and 115.61 and the PLD6 expression level (gene PLD6, 9147791-treated cells, two replicates) was 4.96 and 5.07. The PLEKHG4 expression level (gene PLEKHG4, 9147791-treated cells, two replicates) was 9.09 and 8.55, the PLRG1 expression level (gene PLRG1, 9147791-treated cells, two replicates) was 18.77 and 17.99 and the PNPO expression level (gene PNPO, 9147791-treated cells, two replicates) was 12.32 and 11.96. The POLR1B expression level (gene POLR1B, 9147791-treated cells, two replicates) was 13.48 and 13.61, the PORCN expression level (gene PORCN, 9147791-treated cells, two replicates) was 8.43 and 8.53 and the PPIE expression level (gene PPIE, 9147791-treated cells, two replicates) was 36.69 and 37.52. The PPPDE1 expression level (gene PPPDE1, 9147791-treated cells, two replicates) was 25.65 and 26.33, the PPPDE2 expression level (gene PPPDE2, 9147791-treated cells, two replicates) was 24.63 and 25.91 and the PRDX5 expression level (gene PRDX5, 9147791-treated cells, two replicates) was 527.71 and 539.87. For the same compound, the PRKAB1 expression level (gene PRKAB1, 9147791-treated cells, two replicates) was 9.24 and 9.53, the PRKAB2 expression level (gene PRKAB2, 9147791-treated cells, two replicates) was 9.63 and 9.56 and the PRKAG2 expression level (gene PRKAG2, 9147791-treated cells, two replicates) was 4.40 and 4.65. For the same compound, the PRPF38B expression level (gene PRPF38B, 9147791-treated cells, two replicates) was 24.17 and 23.91, the RAD23A expression level (gene RAD23A, 9147791-treated cells, two replicates) was 139.22 and 133.17 and the RAD51C expression level (gene RAD51C, 9147791-treated cells, two replicates) was 25.11 and 27.22. The RBM18 expression level (gene RBM18, 9147791-treated cells, two replicates) was 22.42 and 23.14, the RDH14 expression level (gene RDH14, 9147791-treated cells, two replicates) was 13.62 and 14.25 and the REPS1 expression level (gene REPS1, 9147791-treated cells, two replicates) was 11.08 and 11.40. For the same compound, the RETSAT expression level (gene RETSAT, 9147791-treated cells, two replicates) was 39.84 and 41.20, the RFNG expression level (gene RFNG, 9147791-treated cells, two replicates) was 19.96 and 19.40 and the RILPL1 expression level (gene RILPL1, 9147791-treated cells, two replicates) was 8.85 and 9.19. For the same compound, the RIPK2 expression level (gene RIPK2, 9147791-treated cells, two replicates) was 9.51 and 9.78, the RNF135 expression level (gene RNF135, 9147791-treated cells, two replicates) was 6.73 and 6.55 and the RNF139 expression level (gene RNF139, 9147791-treated cells, two replicates) was 14.33 and 14.56. The RNF146 expression level (gene RNF146, 9147791-treated cells, two replicates) was 8.67 and 9.36, the RNF212 expression level (gene RNF212, 9147791-treated cells, two replicates) was 23.40 and 24.53 and the RPRD1A expression level (gene RPRD1A, 9147791-treated cells, two replicates) was 17.67 and 18.23. The RPUSD3 expression level (gene RPUSD3, 9147791-treated cells, two replicates) was 51.54 and 51.13, the RTTN expression level (gene RTTN, 9147791-treated cells, two replicates) was 5.05 and 5.18 and the RUNDC1 expression level (gene RUNDC1, 9147791-treated cells, two replicates) was 7.46 and 7.03. The SDCCAG3 expression level (gene SDCCAG3, 9147791-treated cells, two replicates) was 69.16 and 66.70, the SENP1 expression level (gene SENP1, 9147791-treated cells, two replicates) was 10.13 and 10.39 and the SENP5 expression level (gene SENP5, 9147791-treated cells, two replicates) was 9.14 and 9.80. The SIKE1 expression level (gene SIKE1, 9147791-treated cells, two replicates) was 10.16 and 10.46, the SLC26A11 expression level (gene SLC26A11, 9147791-treated cells, two replicates) was 7.10 and 7.46 and the SLC35B3 expression level (gene SLC35B3, 9147791-treated cells, two replicates) was 9.59 and 9.09. The SLC38A6 expression level (gene SLC38A6, 9147791-treated cells, two replicates) was 8.14 and 8.35, the SLC39A6 expression level (gene SLC39A6, 9147791-treated cells, two replicates) was 55.62 and 53.39 and the SMEK2 expression level (gene SMEK2, 9147791-treated cells, two replicates) was 22.28 and 23.17. The SQSTM1 expression level (gene SQSTM1, 9147791-treated cells, two replicates) was 402.87 and 398.40, the ST6GALNAC4 expression level (gene ST6GALNAC4, 9147791-treated cells, two replicates) was 39.60 and 40.55 and the ST7L expression level (gene ST7L, 9147791-treated cells, two replicates) was 3.77 and 3.85. The STAMBP expression level (gene STAMBP, 9147791-treated cells, two replicates) was 26.17 and 25.95, the STK24 expression level (gene STK24, 9147791-treated cells, two replicates) was 98.53 and 99.63 and the STK36 expression level (gene STK36, 9147791-treated cells, two replicates) was 5.44 and 5.78. The STK40 expression level (gene STK40, 9147791-treated cells, two replicates) was 6.18 and 6.16, the STX4 expression level (gene STX4, 9147791-treated cells, two replicates) was 45.64 and 43.00 and the TBCCD1 expression level (gene TBCCD1, 9147791-treated cells, two replicates) was 7.66 and 8.12. For the same compound, the TGDS expression level (gene TGDS, 9147791-treated cells, two replicates) was 10.85 and 10.65, the TIGD2 expression level (gene TIGD2, 9147791-treated cells, two replicates) was 10.77 and 11.51 and the TMEM33 expression level (gene TMEM33, 9147791-treated cells, two replicates) was 13.53 and 12.82. For the same compound, the TMEM68 expression level (gene TMEM68, 9147791-treated cells, two replicates) was 5.74 and 5.79, the TMEM120B expression level (gene TMEM120B, 9147791-treated cells, two replicates) was 7.48 and 7.87 and the TMEM126B expression level (gene TMEM126B, 9147791-treated cells, two replicates) was 51.64 and 47.99. For the same compound, the TMEM134 expression level (gene TMEM134, 9147791-treated cells, two replicates) was 16.44 and 17.07, the TMEM167B expression level (gene TMEM167B, 9147791-treated cells, two replicates) was 13.61 and 13.31 and the TRIM38 expression level (gene TRIM38, 9147791-treated cells, two replicates) was 6.07 and 6.47. The TRMT2A expression level (gene TRMT2A, 9147791-treated cells, two replicates) was 11.24 and 11.68, the TRNT1 expression level (gene TRNT1, 9147791-treated cells, two replicates) was 14.44 and 15.17 and the TTC9C expression level (gene TTC9C, 9147791-treated cells, two replicates) was 44.37 and 45.86. For the same compound, the USP3 expression level (gene USP3, 9147791-treated cells, two replicates) was 15.95 and 16.26, the USP45 expression level (gene USP45, 9147791-treated cells, two replicates) was 4.03 and 4.15 and the VHL expression level (gene VHL, 9147791-treated cells, two replicates) was 23.74 and 22.96. The WDR73 expression level (gene WDR73, 9147791-treated cells, two replicates) was 10.95 and 11.17, the XPO5 expression level (gene XPO5, 9147791-treated cells, two replicates) was 32.34 and 33.37 and the ZBED5 expression level (gene ZBED5, 9147791-treated cells, two replicates) was 26.69 and 27.18. For the same compound, the ZBTB26 expression level (gene ZBTB26, 9147791-treated cells, two replicates) was 10.25 and 9.99, the ZBTB34 expression level (gene ZBTB34, 9147791-treated cells, two replicates) was 4.78 and 4.42 and the ZCCHC4 expression level (gene ZCCHC4, 9147791-treated cells, two replicates) was 6.80 and 6.69. The ZCCHC8 expression level (gene ZCCHC8, 9147791-treated cells, two replicates) was 17.17 and 17.82, the ZCCHC9 expression level (gene ZCCHC9, 9147791-treated cells, two replicates) was 6.71 and 6.52 and the ZFP30 expression level (gene ZFP30, 9147791-treated cells, two replicates) was 3.88 and 3.75. The ZFP36L2 expression level (gene ZFP36L2, 9147791-treated cells, two replicates) was 6.55 and 6.96, the ZFP64 expression level (gene ZFP64, 9147791-treated cells, two replicates) was 11.62 and 11.15 and the ZFYVE27 expression level (gene ZFYVE27, 9147791-treated cells, two replicates) was 15.03 and 14.85. For the same compound, the ZNF12 expression level (gene ZNF12, 9147791-treated cells, two replicates) was 10.78 and 10.46, the ZNF91 expression level (gene ZNF91, 9147791-treated cells, two replicates) was 4.92 and 4.68 and the ZNF133 expression level (gene ZNF133, 9147791-treated cells, two replicates) was 7.16 and 7.05. The ZNF184 expression level (gene ZNF184, 9147791-treated cells, two replicates) was 6.52 and 6.31, the ZNF193 expression level (gene ZNF193, 9147791-treated cells, two replicates) was 10.85 and the ZNF195 expression level (gene ZNF195, 9147791-treated cells, two replicates) was 11.04 and 10.45. The ZNF319 expression level (gene ZNF319, 9147791-treated cells, two replicates) was 3.69 and 3.71, the ZNF320 expression level (gene ZNF320, 9147791-treated cells, two replicates) was 11.36 and 12.30 and the ZNF354A expression level (gene ZNF354A, 9147791-treated cells, two replicates) was 9.92 and 9.13. For the same compound, the ZNF445 expression level (gene ZNF445, 9147791-treated cells, two replicates) was 5.75 and 5.83, the ZNF566 expression level (gene ZNF566, 9147791-treated cells, two replicates) was 3.15 and 2.91 and the ZNF619 expression level (gene ZNF619, 9147791-treated cells, two replicates) was 2.16 and 1.99. The ZNF664 expression level (gene ZNF664, 9147791-treated cells, two replicates) was 57.01 and 56.94, the ZNF700 expression level (gene ZNF700, 9147791-treated cells, two replicates) was 10.30 and 10.08 and the ZNF706 expression level (gene ZNF706, 9147791-treated cells, two replicates) was 34.34 and 36.65. The ZNF764 expression level (gene ZNF764, 9147791-treated cells, two replicates) was 5.35 and 5.20, the ZNF780B expression level (gene ZNF780B, 9147791-treated cells, two replicates) was 4.74 and 4.46 and the ZNF800 expression level (gene ZNF800, 9147791-treated cells, two replicates) was 6.37 and 6.62. The ZRSR2 expression level (gene ZRSR2, 9147791-treated cells, two replicates) was 34.69 and 32.80, the ZSWIM7 expression level (gene ZSWIM7, 9147791-treated cells, two replicates) was 4.48 and 4.71 and the “genes with changes of <fivefold in expression” value (of ~10,000 genes detected) was 85. For the same compound, the “genes with changes of <tenfold in expression” value (of ~10,000 genes detected) was 4.
